Laboratory results published in ChEMBL document CHEMBL4507295 (2021).

Columns and labels:
[1] = target: Cyclin-dependent kinase-like 1 (Homo sapiens) (UniProt Q00532); conditions: Compound concentration 1000.0 nM
[2] = system: Phosphatidylinositol 4,5-bisphosphate 3-kinase catalytic subunit alpha isoform (Homo sapiens), P42336 [E545K]; conditions: Compound concentration 1000.0 nM
[3] = target: Mitogen-activated protein kinase kinase kinase 12 (Homo sapiens) (UniProt Q12852); conditions: Compound concentration 1000.0 nM
[4] = target: Tyrosine-protein kinase Yes (Homo sapiens) (UniProt P07947); conditions: Compound concentration 1000.0 nM
[5] = target: Macrophage colony-stimulating factor 1 receptor (Homo sapiens) (UniProt P07333); conditions: Compound concentration 1000.0 nM
[6] = target: Myotonin-protein kinase (Homo sapiens) (UniProt Q09013); conditions: Compound concentration 1000.0 nM
[7] = target: Mitogen-activated protein kinase kinase kinase kinase 2 (Homo sapiens) (UniProt Q12851); conditions: Compound concentration 1000.0 nM
Mitogen-activated protein kinase kinase kinase kinase 2 (Homo sapiens), sequence (Q12851 whole entry): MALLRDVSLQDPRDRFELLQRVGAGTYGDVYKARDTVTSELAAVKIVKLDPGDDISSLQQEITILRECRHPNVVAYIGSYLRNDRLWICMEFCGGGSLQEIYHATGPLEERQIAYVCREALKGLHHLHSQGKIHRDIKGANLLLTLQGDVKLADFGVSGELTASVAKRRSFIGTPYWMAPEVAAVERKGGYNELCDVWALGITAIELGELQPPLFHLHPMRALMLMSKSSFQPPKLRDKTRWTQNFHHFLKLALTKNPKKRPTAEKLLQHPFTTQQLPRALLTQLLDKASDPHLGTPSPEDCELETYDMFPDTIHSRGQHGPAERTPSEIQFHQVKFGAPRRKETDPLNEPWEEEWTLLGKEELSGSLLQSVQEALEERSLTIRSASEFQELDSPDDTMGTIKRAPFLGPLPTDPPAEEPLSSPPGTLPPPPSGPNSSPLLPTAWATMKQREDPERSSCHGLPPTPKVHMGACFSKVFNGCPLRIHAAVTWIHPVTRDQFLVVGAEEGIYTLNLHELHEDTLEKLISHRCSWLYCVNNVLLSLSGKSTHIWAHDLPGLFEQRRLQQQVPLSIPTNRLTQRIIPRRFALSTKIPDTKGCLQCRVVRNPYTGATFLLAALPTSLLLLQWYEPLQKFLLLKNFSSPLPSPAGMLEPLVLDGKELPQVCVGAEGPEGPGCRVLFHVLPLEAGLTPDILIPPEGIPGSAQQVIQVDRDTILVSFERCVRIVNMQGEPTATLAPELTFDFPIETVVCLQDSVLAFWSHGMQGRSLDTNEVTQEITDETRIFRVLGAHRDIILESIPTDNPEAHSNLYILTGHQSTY

[8] = target: cAMP-dependent protein kinase catalytic subunit alpha (Homo sapiens) (UniProt P17612); conditions: Compound concentration 1000.0 nM
[9] = target: Serine/threonine-protein kinase 4 (Homo sapiens) (UniProt Q13043); conditions: Compound concentration 1000.0 nM
Serine/threonine-protein kinase 4 (Homo sapiens), sequence (Q13043 whole entry): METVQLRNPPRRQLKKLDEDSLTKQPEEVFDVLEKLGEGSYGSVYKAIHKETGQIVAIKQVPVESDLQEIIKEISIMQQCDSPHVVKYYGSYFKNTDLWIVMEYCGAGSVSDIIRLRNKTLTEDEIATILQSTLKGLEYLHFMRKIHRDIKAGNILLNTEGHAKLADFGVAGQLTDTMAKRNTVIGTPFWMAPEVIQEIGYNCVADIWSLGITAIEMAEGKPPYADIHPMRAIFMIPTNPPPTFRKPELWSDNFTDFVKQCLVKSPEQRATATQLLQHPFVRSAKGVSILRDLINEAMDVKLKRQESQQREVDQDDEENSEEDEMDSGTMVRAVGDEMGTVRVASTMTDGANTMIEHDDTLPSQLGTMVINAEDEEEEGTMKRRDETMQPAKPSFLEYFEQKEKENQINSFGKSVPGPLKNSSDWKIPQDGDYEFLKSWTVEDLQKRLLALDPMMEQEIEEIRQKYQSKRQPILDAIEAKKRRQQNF

[10] = target: 5-hydroxytryptamine receptor 1D (Homo sapiens) (UniProt P28221); conditions: Compound concentration 10.0 uM
5-hydroxytryptamine receptor 1D (Homo sapiens), sequence (P28221 whole entry): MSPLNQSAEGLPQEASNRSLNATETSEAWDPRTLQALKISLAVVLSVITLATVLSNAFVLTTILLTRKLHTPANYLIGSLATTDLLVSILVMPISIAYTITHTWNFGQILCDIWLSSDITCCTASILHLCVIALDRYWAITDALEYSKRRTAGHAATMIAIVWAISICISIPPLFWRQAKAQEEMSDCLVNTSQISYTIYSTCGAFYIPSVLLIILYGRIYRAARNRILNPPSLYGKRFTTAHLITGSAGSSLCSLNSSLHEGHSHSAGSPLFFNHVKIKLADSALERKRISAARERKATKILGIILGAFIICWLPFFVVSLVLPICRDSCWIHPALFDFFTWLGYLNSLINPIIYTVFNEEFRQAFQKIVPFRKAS

[11] = system: Mast/stem cell growth factor receptor Kit (Homo sapiens), P10721 [D816H]; conditions: Compound concentration 1000.0 nM
[12] = target: Rho-associated protein kinase 1 (Homo sapiens) (UniProt Q13464); conditions: Compound concentration 1000.0 nM
[13] = target: Microtubule-associated serine/threonine-protein kinase 1 (Homo sapiens) (UniProt Q9Y2H9); conditions: Compound concentration 1000.0 nM
[14] = target: Mitogen-activated protein kinase 15 (Homo sapiens) (UniProt Q8TD08); conditions: Compound concentration 1000.0 nM
[15] = target: 5'-AMP-activated protein kinase catalytic subunit alpha-2 (Homo sapiens) (UniProt P54646); conditions: Compound concentration 1000.0 nM
[16] = target: Mitogen-activated protein kinase 7 (Homo sapiens) (UniProt Q13164); conditions: Compound concentration 1000.0 nM
[17] = target: Cyclin-dependent kinase 13 (Homo sapiens) (UniProt Q14004); conditions: Compound concentration 1000.0 nM
[18] = target: 5-hydroxytryptamine receptor 1B (Homo sapiens) (UniProt P28222); conditions: Compound concentration 10.0 uM
[19] = system: Receptor-type tyrosine-protein kinase FLT3 (Homo sapiens), P36888 [N841I]; conditions: Compound concentration 1000.0 nM
[20] = target: Mitogen-activated protein kinase 14 (Homo sapiens) (UniProt Q16539); conditions: Compound concentration 1000.0 nM
[21] = target: Ribosomal protein S6 kinase alpha-1 (Homo sapiens) (UniProt Q15418); conditions: Compound concentration 1000.0 nM
[22] = target: MAP/microtubule affinity-regulating kinase 3 (Homo sapiens) (UniProt P27448); conditions: Compound concentration 1000.0 nM
[23] = target: Bone morphogenetic protein receptor type-2 (Homo sapiens) (UniProt Q13873); conditions: Compound concentration 1000.0 nM
[24] = target: Ephrin type-B receptor 2 (Homo sapiens) (UniProt P29323); conditions: Compound concentration 1000.0 nM
[25] = target: Serine/threonine-protein kinase 33 (Homo sapiens) (UniProt Q9BYT3); conditions: Compound concentration 1000.0 nM
[26] = target: 5-hydroxytryptamine receptor 2B (Homo sapiens) (UniProt P41595); conditions: Compound concentration 10.0 uM
[27] = target: Tyrosine-protein kinase receptor TYRO3 (Homo sapiens) (UniProt Q06418); conditions: Compound concentration 1000.0 nM
Tyrosine-protein kinase receptor TYRO3 (Homo sapiens), sequence (Q06418 whole entry): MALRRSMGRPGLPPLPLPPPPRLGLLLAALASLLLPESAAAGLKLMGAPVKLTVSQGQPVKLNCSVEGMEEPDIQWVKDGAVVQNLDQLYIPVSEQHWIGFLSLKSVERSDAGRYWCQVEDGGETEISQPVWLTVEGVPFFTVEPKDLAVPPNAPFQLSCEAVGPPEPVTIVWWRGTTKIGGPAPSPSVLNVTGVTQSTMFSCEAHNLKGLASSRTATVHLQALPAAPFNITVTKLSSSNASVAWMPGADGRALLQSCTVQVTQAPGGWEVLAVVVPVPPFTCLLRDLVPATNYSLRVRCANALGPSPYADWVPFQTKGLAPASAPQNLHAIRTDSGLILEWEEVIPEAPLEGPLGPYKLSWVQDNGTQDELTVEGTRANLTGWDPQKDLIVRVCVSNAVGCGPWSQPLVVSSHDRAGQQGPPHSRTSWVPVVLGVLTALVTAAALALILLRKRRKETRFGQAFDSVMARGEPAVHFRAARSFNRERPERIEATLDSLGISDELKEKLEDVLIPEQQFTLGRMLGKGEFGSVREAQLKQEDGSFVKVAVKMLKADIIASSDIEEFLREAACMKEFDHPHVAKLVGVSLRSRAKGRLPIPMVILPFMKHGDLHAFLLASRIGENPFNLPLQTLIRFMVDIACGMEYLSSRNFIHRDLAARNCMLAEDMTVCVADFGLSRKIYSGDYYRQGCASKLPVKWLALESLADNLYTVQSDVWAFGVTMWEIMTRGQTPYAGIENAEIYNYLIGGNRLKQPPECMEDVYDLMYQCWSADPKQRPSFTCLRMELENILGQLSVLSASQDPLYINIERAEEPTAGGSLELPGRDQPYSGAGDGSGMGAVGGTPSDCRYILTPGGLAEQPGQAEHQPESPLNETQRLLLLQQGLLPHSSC

[28] = target: Death-associated protein kinase 2 (Homo sapiens) (UniProt Q9UIK4); conditions: Compound concentration 1000.0 nM
Death-associated protein kinase 2 (Homo sapiens), sequence (Q9UIK4 whole entry, looked up): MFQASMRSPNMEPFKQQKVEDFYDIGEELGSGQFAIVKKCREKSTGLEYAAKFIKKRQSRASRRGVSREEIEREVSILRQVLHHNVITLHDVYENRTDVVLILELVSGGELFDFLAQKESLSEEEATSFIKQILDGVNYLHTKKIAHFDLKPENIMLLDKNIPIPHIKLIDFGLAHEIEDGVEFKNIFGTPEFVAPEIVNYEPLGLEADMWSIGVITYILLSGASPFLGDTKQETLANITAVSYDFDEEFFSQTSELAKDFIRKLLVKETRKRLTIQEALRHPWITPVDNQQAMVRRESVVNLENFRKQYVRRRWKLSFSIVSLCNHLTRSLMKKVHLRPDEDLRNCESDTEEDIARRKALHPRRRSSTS

[29] = target: Mast/stem cell growth factor receptor Kit (Homo sapiens) (UniProt P10721); conditions: Compound concentration 1000.0 nM
[30] = target: Serine/threonine-protein kinase VRK2 (Homo sapiens) (UniProt Q86Y07); conditions: Compound concentration 1000.0 nM
[31] = target: Insulin-like growth factor 1 receptor (Homo sapiens) (UniProt P08069); conditions: Compound concentration 1000.0 nM
[32] = target: Mitogen-activated protein kinase kinase kinase 6 (Homo sapiens) (UniProt O95382); conditions: Compound concentration 1000.0 nM
[33] = target: cGMP-dependent protein kinase 1 (Homo sapiens) (UniProt Q13976); conditions: Compound concentration 1000.0 nM
cGMP-dependent protein kinase 1 (Homo sapiens), sequence (Q13976 whole entry): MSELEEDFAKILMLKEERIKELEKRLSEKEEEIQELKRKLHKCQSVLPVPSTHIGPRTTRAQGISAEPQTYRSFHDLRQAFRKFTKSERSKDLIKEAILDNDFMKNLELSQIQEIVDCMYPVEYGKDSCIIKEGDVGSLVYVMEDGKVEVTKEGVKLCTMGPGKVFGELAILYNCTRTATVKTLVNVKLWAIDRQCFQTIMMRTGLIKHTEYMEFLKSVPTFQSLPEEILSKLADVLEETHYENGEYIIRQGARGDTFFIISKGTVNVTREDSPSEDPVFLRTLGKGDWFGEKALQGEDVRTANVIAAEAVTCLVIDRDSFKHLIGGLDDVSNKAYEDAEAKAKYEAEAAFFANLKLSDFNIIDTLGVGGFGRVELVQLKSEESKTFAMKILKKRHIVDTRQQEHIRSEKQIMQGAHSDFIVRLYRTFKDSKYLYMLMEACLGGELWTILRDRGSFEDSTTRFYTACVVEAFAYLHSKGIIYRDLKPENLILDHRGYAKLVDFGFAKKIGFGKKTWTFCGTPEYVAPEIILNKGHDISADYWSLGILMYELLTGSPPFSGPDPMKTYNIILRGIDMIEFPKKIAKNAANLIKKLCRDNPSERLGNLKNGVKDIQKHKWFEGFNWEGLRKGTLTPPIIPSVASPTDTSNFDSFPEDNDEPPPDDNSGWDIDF

[34] = target: Dual specificity protein kinase CLK1 (Homo sapiens) (UniProt P49759); conditions: Compound concentration 1000.0 nM
[35] = target: Tyrosine-protein kinase Mer (Homo sapiens) (UniProt Q12866); conditions: Compound concentration 1000.0 nM
[36] = system: Phosphatidylinositol 4,5-bisphosphate 3-kinase catalytic subunit alpha isoform (Homo sapiens), P42336 [C420R]; conditions: Compound concentration 1000.0 nM
[37] = system: Proto-oncogene tyrosine-protein kinase receptor Ret (Homo sapiens), P07949 [V804L]; conditions: Compound concentration 1000.0 nM
[38] = target: Interleukin-1 receptor-associated kinase 4 (Homo sapiens) (UniProt Q9NWZ3); conditions: Compound concentration 1000.0 nM
[39] = target: Serine/threonine-protein kinase 32C (Homo sapiens) (UniProt Q86UX6); conditions: Compound concentration 1000.0 nM
[40] = target: Dual specificity protein kinase CLK3 (Homo sapiens) (UniProt P49761); conditions: Compound concentration 1000.0 nM
[41] = target: Serine/threonine-protein kinase DCLK1 (Homo sapiens) (UniProt O15075); conditions: Compound concentration 1000.0 nM
[42] = system: Mast/stem cell growth factor receptor Kit (Homo sapiens), P10721 [A829P]; conditions: Compound concentration 1000.0 nM
Mast/stem cell growth factor receptor Kit (Homo sapiens), P10721 [A829P], sequence (P10721 whole entry A829P): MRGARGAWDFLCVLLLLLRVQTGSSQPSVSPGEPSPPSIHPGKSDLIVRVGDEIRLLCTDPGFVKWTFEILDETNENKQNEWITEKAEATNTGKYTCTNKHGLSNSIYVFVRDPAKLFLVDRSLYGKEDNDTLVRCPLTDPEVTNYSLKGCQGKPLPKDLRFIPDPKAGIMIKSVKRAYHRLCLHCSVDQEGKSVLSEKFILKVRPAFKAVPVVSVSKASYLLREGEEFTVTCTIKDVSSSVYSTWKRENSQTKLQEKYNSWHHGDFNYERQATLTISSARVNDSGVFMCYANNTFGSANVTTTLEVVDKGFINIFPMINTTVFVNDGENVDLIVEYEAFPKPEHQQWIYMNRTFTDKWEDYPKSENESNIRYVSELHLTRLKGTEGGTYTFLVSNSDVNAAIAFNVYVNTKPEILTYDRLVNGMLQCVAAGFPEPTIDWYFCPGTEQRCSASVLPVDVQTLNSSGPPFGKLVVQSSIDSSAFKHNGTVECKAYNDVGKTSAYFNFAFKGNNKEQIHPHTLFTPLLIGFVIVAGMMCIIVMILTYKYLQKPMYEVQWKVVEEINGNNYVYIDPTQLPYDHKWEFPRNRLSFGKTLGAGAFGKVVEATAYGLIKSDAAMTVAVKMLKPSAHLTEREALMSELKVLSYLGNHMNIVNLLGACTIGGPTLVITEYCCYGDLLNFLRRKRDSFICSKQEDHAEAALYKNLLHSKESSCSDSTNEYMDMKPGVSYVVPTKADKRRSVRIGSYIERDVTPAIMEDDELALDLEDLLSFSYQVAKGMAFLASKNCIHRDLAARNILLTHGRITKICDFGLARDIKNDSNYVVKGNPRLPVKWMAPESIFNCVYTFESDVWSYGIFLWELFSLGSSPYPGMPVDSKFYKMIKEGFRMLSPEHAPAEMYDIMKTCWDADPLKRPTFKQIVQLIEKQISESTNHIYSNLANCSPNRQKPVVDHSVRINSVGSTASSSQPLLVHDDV

[43] = target: cGMP-dependent protein kinase 2 (Homo sapiens) (UniProt Q13237); conditions: Compound concentration 1000.0 nM
[44] = target: Serine/threonine-protein kinase WNK2 (Homo sapiens) (UniProt Q9Y3S1); conditions: Compound concentration 1000.0 nM
[45] = target: Calcium/calmodulin-dependent protein kinase type 1B (Homo sapiens) (UniProt Q6P2M8); conditions: Compound concentration 1000.0 nM
Calcium/calmodulin-dependent protein kinase type 1B (Homo sapiens), sequence (Q6P2M8 whole entry): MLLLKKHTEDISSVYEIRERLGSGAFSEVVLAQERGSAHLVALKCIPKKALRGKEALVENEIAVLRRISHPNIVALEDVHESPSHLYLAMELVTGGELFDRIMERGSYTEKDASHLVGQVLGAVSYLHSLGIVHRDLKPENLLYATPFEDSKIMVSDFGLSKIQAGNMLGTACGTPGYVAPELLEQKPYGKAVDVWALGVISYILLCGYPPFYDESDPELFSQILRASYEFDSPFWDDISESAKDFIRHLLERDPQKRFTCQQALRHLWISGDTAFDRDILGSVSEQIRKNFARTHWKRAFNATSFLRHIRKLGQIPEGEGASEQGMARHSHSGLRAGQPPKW

N#CC1(c2ccccn2)CCN(Cc2cc(C(=O)N3CCCC3)c(=O)n3ccccc23)CC1
inactive: residual activity [1] 78% | residual activity [2] 76% | residual activity [3] 100% | residual activity [4] 84% | residual activity [5] 94% | residual activity [6] 90% | residual activity [7] 96% | residual activity [8] 88% | residual activity [9] 88% | inhibition [10] 14.6% | residual activity [11] 100% | residual activity [12] 100% | residual activity [13] 82% | residual activity [14] 92% | residual activity [15] 100% | residual activity [16] 63% | residual activity [17] 100% | inhibition [18] 13% | residual activity [19] 100% | residual activity [20] 86% | residual activity [21] 100% | residual activity [22] 87% | residual activity [23] 92% | residual activity [24] 77% | residual activity [25] 62% | inhibition [26] 5.44% | residual activity [27] 78% | residual activity [28] 94% | residual activity [29] 100% | residual activity [30] 100% | residual activity [31] 88% | residual activity [32] 100% | residual activity [33] 88% | residual activity [34] 85% | residual activity [35] 86% | residual activity [36] 87% | residual activity [37] 92% | residual activity [38] 100% | residual activity [39] 100% | residual activity [40] 99% | residual activity [41] 91% | residual activity [42] 50% | residual activity [43] 100% | residual activity [44] 100% | residual activity [45] 90%

N#CC1(c2ccccn2)CCN(Cc2cc(C(=O)O)c(=O)n3ccccc23)CC1 [MSD-M1PAM]
inactive: residual activity [1] 100% | residual activity [2] 100% | residual activity [3] 93% | residual activity [4] 94% | residual activity [5] 95% | residual activity [6] 97% | residual activity [7] 81% | residual activity [8] 88% | residual activity [9] 100% | inhibition [10] -4.55% | residual activity [11] 85% | residual activity [12] 86% | residual activity [13] 50% | residual activity [14] 100% | residual activity [15] 100% | residual activity [16] 94% | residual activity [17] 98% | inhibition [18] 2.72% | residual activity [19] 97% | residual activity [20] 100% | residual activity [21] 94% | residual activity [22] 100% | residual activity [23] 89% | residual activity [24] 100% | residual activity [25] 56% | inhibition [26] 3.23% | residual activity [27] 98% | residual activity [28] 99% | residual activity [29] 87% | residual activity [30] 100% | residual activity [31] 89% | residual activity [32] 100% | residual activity [33] 98% | residual activity [34] 80% | residual activity [35] 100% | residual activity [36] 97% | residual activity [37] 100% | residual activity [38] 83% | residual activity [39] 72% | residual activity [40] 100% | residual activity [41] 100% | residual activity [42] 84% | residual activity [43] 95% | residual activity [44] 79% | residual activity [45] 100%
